Test results taken from ChEMBL document CHEMBL4411274, “Recent advances of tetrazole derivatives as potential anti-tubercular and anti-malarial agents” (Eur J Med Chem, 2019).
Values after ≈ are worked out from the molar mass of the structure shown.

Columns and labels:
Mycobacterium avium [1] = test: Potency index, ratio of isoniazid MIC to compound MIC for Mycobacterium avium CNCTC My 330/88; type: functional
Mycobacterium avium [2] = test: Antibacterial activity against Mycobacterium avium CNCTC My 330/88; type: functional
Mycobacterium kansasii [3] = test: Potency index, ratio of isoniazid MIC to compound MIC for Mycobacterium kansasii CNCTC My 235/80; type: functional
[4] = system: Mycobacterium tuberculosis; test: Antibacterial activity against Mycobacterium tuberculosis CNCTC My 331/88; type: functional
Mycobacterium kansasii [5] = test: Antibacterial activity against Mycobacterium kansasii CNCTC My 235/80; type: functional
Mycobacterium kansasii [6] = test: Antibacterial activity against Mycobacterium kansasii isolate 6509/96; type: functional
[7] = system: Mycobacterium tuberculosis; test: Antibacterial activity against Mycobacterium tuberculosis H37Rv after 5 days; type: functional; conditions: 120 h
[8] = system: Mycobacterium tuberculosis; test: Antibacterial activity against Mycobacterium tuberculosis H37Rv; type: functional
Plasmodium falciparum [9] = test: Antimalarial activity against chloroquine resistant Plasmodium falciparum FcB1R; type: functional, organism-based
Plasmodium falciparum [10] = test: Antimalarial activity against ring-stage chloroquine-susceptible Plasmodium falciparum 3D7 preincubated for 6 hrs followed by compound wash and measured after 66 hrs by Giemsa-staining based light microscopic analysis; type: functional, organism-based
Plasmodium falciparum [11] = test: Antimalarial activity against ring-stage multidrug-resistant Plasmodium falciparum Dd2 preincubated for 6 hrs followed by compound wash and measured after 66 hrs by Giemsa-staining based light microscopic analysis; type: functional, organism-based
[12] = system: Mycobacterium tuberculosis; test: Antibacterial activity against Mycobacterium tuberculosis H37Rv by MABA; type: functional
[13] = system: Mycobacterium tuberculosis; test: Antibacterial activity against Mycobacterium tuberculosis H37Rv by resazurin dye-based assay; type: functional

For `Clc1ccc(-n2nnnc2SCc2ccccc2)cc1Cl`, the Ratio (Mycobacterium avium [1]) was >4, the MIC (Mycobacterium avium [2]) was 8 to 250 µg/mL (≈ 23.7 to 741 µM) and the Ratio (Mycobacterium kansasii [3]) was >4. The MIC [4] was 8 to 62.5 µg/mL (≈ 23.7 to 185 µM), the MIC (Mycobacterium kansasii [5]) was 8 to 250 µg/mL (≈ 23.7 to 741 µM) and the MIC (Mycobacterium kansasii [6]) was 8 to 62.5 µg/mL (≈ 23.7 to 185 µM).

`Cn1nnnc1SC1=CS(=O)(=O)c2ccccc21` gave an MIC [7] of 2.6 µM (≈ 0.729 µg/mL).

Compound `Cc1ccc(-n2c(-c3cc4cc(Cl)ccc4n4nnnc34)nc(-c3ccccc3)c2-c2ccccc2)cc1` has an MIC [8] of 25 µg/mL (≈ 48.7 µM).

With `CC1=C(CCc2nnnn2CCCC#N)C(=O)c2ccccc2C1=O` the IC50 (Plasmodium falciparum [9]) was 900 to 1400 nM.

For `Cc1ccc2c(c1)cc(C1C3=C(CC(C)(C)CC3=O)N(c3ccc(F)cc3)C3=C1C(=O)CC(C)(C)C3)c1nnnn12`, the MIC [8] was 50 µg/mL (≈ 91 µM).

In the case of `CC1=C(CCc2nnnn2CCCCCC#N)C(=O)c2ccccc2C1=O`, the IC50 (Plasmodium falciparum [9]) is reported as 900 to 1400 nM.

With `CC1=C(CCc2nnnn2CCCCC#N)C(=O)c2ccccc2C1=O` the IC50 (Plasmodium falciparum [9]) was 900 to 1400 nM.

`c1cnc(-c2nn3nnnc3o2)cn1` showed an MIC [8] of 50 µg/mL (≈ 264 µM).

`C[C@H]1[C@H](OC(=O)CCC(=O)O)O[C@@H]2O[C@@]3(C)CC[C@H]4[C@H](C)CC[C@@H]1[C@@]24OO3` [ARTESUNATE] gave an IC50 (Plasmodium falciparum [10]) of 5.1 nM and an IC50 (Plasmodium falciparum [11]) of 4.6 nM.

For `CC[C@@H](CO)NCCN[C@@H](CC)CO` [ETHAMBUTOL], the MIC [8] was 2 µg/mL (≈ 9.79 µM) and the MIC [12] was 1.56 µg/mL (≈ 7.64 µM).

`NNC(=O)c1ccncc1` [ISONIAZID] showed an MIC [8] of 0.2 µg/mL (≈ 1.46 µM), an MIC [13] of 0.063 µg/mL (≈ 0.459 µM) and an MIC [4] of 0.5 µg/mL (≈ 3.65 µM). The MIC (Mycobacterium kansasii [6]) was 4 µg/mL (≈ 29.2 µM).

`CO[C@H]1/C=C/O[C@@]2(C)Oc3c(C)c(O)c4c(O)c(c(/C=N/N5CCN(C)CC5)c(O)c4c3C2=O)NC(=O)/C(C)=C\C=C\[C@H](C)[C@H](O)[C@@H](C)[C@@H](O)[C@@H](C)[C@H](OC(C)=O)[C@@H]1C` [RIFAMPIN] gave an MIC [8] of 0.25 to 40 µg/mL (≈ 0.304 to 48.6 µM) and an MIC [13] of 0.006 µg/mL (≈ 0.00729 µM).

`CN[C@@H]1[C@H](O[C@H]2[C@H](O[C@H]3[C@H](O)[C@@H](O)[C@H](N=C(N)N)[C@@H](O)[C@@H]3N=C(N)N)O[C@@H](C)[C@]2(O)C=O)O[C@@H](CO)[C@H](O)[C@H]1O` [STREPTOMYCIN] showed an MIC [8] of 4 µg/mL (≈ 6.88 µM).
